The text below walks through data of patent publication US9034866B2 (Genentech, Inc., priority 2012, dated 2015).

Molecules are shown by their SMILES. pIC50: −log10 of the molar value. Read-outs that look alike come from different tables or passages of the source. Some results are limits rather than exact numbers.

The test system of experiment [1] is p52 (NF-kB2) nuclear translocation in HeLa cells. The experiment can be described thus: p52 nuclear translocation assay (non-classical NF-kB signaling), high content imaging. Type of experiment: cell-based. The conditions noted are these: Homo sapiens, HeLa, 5 h, 100 ng/mL anti-lymphotoxin beta receptor antibody for 5 hours, read-out: p52 HeLa Transloc Assay (IC50). The gist of the method:
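HeLa cells in 10% FBS medium were treated with compound (0.2% DMSO final), then stimulated 5 h with 100 ng/mL anti-lymphotoxin beta receptor antibody. After fixation, cells were immunostained for p52 (2 ug/mL antibody) with DRAQ5 nuclear stain and imaged by high-content imaging. IC50 in µM was derived from the nuclear/cytoplasmic signal ratio.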

Experiment [2] deals with nuclear factor-kappa B (NF-kB)-inducing kinase (NIK) (Homo sapiens (Human), UniProt Q99558). Nature of the experiment: NIK Enzyme Inhibition Assay (Transcreener ADP fluorescence polarization). It is filed as biochemical. The conditions noted are these: read-out: NIK ADP-FP (Ki uM). The gist of the method: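 Fluorescence-polarization ADP detection (tracer displacement, 633 nm excitation) read after EDTA/Brij quench. Reaction: 0.2-1 nM insect-cell-derived NIK, 10 uM ATP, HEPES pH 7.2 with MgCl2 and DTT, 1% DMSO, 1-3.5 h with compounds.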

Experiment [3] deals with REL-A (p65) nuclear translocation in HeLa cells. The experiment can be described thus: REL-A nuclear translocation assay (classical NF-kB signaling), high content imaging. Type of experiment: cell-based. The conditions noted are these: Homo sapiens, HeLa, compounds 4.5 hours, then 10 ng/mL TNF-α for 30 minutes, read-out: REL-A HeLa Transloc Assay (IC50). The procedure, abridged:
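HeLa cells in 10% FBS medium preincubated with compounds (0.2% DMSO final) for 4.5 hours, then stimulated with 10 ng/mL TNF-α for 30 minutes. Fixed cells stained with 400 ng/mL anti-REL-A antibody, Alexa488 secondary and DRAQ5; translocation quantified by imaging as nuclear to cytoplasmic signal ratio.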

[4] abbreviates: purified NIK 0.2-1 nM, 10 uM ATP, Morrison's quadratic equation.

Chain of nuclear factor-kappa B (NF-kB)-inducing kinase (NIK) (Q99558 whole entry): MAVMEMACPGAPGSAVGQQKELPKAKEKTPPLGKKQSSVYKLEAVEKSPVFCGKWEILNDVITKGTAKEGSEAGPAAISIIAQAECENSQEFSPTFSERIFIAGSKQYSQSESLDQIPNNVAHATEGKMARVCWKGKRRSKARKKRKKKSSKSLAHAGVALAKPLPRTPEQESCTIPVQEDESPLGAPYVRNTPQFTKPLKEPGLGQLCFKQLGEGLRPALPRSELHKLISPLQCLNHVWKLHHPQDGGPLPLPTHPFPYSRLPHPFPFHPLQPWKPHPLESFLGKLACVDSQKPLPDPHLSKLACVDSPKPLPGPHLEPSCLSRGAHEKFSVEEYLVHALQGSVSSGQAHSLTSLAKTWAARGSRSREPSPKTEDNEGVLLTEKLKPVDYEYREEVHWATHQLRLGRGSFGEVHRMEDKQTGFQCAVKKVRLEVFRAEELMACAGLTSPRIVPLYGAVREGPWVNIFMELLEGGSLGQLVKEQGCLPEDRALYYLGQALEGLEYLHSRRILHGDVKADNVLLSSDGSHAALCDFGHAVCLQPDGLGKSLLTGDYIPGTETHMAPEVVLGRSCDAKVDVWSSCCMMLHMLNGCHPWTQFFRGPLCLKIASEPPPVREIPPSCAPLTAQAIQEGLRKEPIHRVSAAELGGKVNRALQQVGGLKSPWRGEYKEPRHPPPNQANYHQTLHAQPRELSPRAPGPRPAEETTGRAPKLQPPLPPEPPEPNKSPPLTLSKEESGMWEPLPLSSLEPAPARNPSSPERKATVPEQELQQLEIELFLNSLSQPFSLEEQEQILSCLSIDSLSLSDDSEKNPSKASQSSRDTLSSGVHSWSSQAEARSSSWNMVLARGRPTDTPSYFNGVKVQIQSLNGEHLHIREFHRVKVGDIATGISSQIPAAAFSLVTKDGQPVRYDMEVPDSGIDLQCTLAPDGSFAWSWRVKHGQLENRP

Consider `CNC(=O)c1c(C(N)=O)nc2n1C1CC(C1)c1cc(F)c(C#CC(C)(C)O)cc1-2` (racemic), for which the pIC50 in experiment [1] is 6.45; in experiment [3] it was below 4.70. Further, the Ki in experiment [2] (setting [4]) was determined as 0.0022 µM.
In the same order, the values of `CC(O)(C#Cc1cc2c(cc1F)OCCn1cc(C(N)=O)nc1-2)CF` (racemic) [Example 75] are 5.42, 4.70 and 0.008 µM.
The matching figures for `CC(C)(O)C#Cc1ccc2c(c1)-c1nc(C(N)=O)c(C(F)(F)F)n1C1CC2C1` (racemic) [Example 206]: 5.36, below 4.70 and 0.026 µM.
For `CNC(=O)c1c(C(N)=O)nn2c1CCOc1ccc(C#C[C@]3(O)CCN(C)C3=O)cc1-2` (racemic) [Example 514], the pIC50 was 6.27 in experiment [1] and below 4.70 in experiment [3]. Also, the Ki in experiment [2] (setting [4]) was determined as 0.0012 µM.
As to `Cc1cc([C@](C)(O)C#Cc2cc3c(cc2F)OCCn2cc(C(N)=O)nc2-3)no1` [Example 6, 8-fluoro-9-[(R)-3-hydroxy-3-(5-methyl-isoxazol-3-yl)-but-1-ynyl]-4,5-dihydro-6-oxa-1,3a-diaza-benzo[e]azulene-2-car-boxylic acid amide], the figures for the pIC50 in experiment [1] and in experiment [3] were 6.87 and 4.70, respectively. The Ki in experiment [2] (setting [4]) was 0.0003 µM.
In the same order, the values of `Cc1cc([C@](C)(O)C#Cc2ccc3c(c2)-c2nc(C(N)=O)sc2CCO3)no1` [Example 7, 9-[(R)-3-hydroxy-3-(5-methyl-isoxazol-3-yl)-but-1-ynyl]-4,5-dihydro-6-oxa-3-thia-1-aza-benzo[e]azulene-2-carboxylic acid amide] are 7.40, 4.70 and 0.0002 µM.
In the same order, the values of `Cc1cc([C@](C)(O)C#Cc2ccc3c(c2)-c2nc(C(N)=O)cn2CCO3)no1` [Example 8, 9-[(R)-3-Hydroxy-3-(5-methyl-isoxazol-3-yl)-but-1-ynyl]-4,5-dihydro-6-oxa-1,3a-diaza-benzo[e]azulene-2-carboxylic acid amide] are 6.17, 4.70 and 0.001 µM.
In the case of `CNC(=O)c1c(C(N)=O)nc2n1CCOc1ccc(C#C[C@@](C)(O)c3noc(C)n3)cc1-2` [Example 98, 9-[(R)-3-hydroxy-3-(5-methyl-[1,2,4]ox-adiazol-3-yl)-but-1-ynyl]-4,5-dihydro-6-oxa-1,3a-diaza-benzo[e]azulene-2,3-di-carboxylic acid 2-amide 3-methylamide], the results for the pIC50 in experiment [1] and in experiment [3] were 6.63 and 4.70, respectively. Moreover, the inhibitory constant (Ki) in experiment [2] (setting [4]) is 0.002 µM.
Regarding `CNC(=O)c1c(C(N)=O)nc2n1CCOc1cc(F)c(C#C[C@@](C)(O)c3cc(C)on3)cc1-2` [Example 99, 8-fluoro-9-[(R)-3-hydroxy-3-(5-methyl-isoxazol-3-yl)-but-1-ynyl]-4,5-dihydro-6-oxa-1,3a-diaza-benzo[e]azulene-2,3-di-carboxylic acid 2-amide 3-methylamide], the pIC50 is 7.20 in experiment [1] and 4.70 in experiment [3]. The Ki in experiment [2] is 0.001 µM.
For `Cc1cc([C@](C)(O)C#Cc2ccc3c(c2)-c2nc(C(N)=O)c(CN4CCOCC4)n2CCO3)no1` [Example 103, 9-[(R)-3-hydroxy-3-(5-methyl-isoxazol-3-yl)-but-1-ynyl]-3-morpholin-4-ylmeth-yl-4,5-dihydro-6-oxa-1,3a-diaza-ben-zo[e]azulene-2-carboxylic acid amide], the negative logarithm of the IC50 (pIC50) in experiment [1] was 6.98; in experiment [3], 4.70. Besides, the inhibitory constant (Ki) in experiment [2] (setting [4]) was found to be 0.002 µM.
In the same order, the values of `CC(C)(O)C#Cc1cc2c(cc1F)OCCn1c-2nc(C(N)=O)c1-c1nc(-c2cccnc2)n[nH]1` [Example 172] are 5.92, below 4.70 and 0.0004 µM.
